Measurements as given in patent publication US20190284220A1, “CRYSTAL FORM OF DAPAGLIFLOZIN INTERMEDIATE AND PREPARATION METHOD THEREFOR” (Jiangsu Hansoh Pharmaceutical Group Co., Ltd., priority 2016, published 2019).

Experiment: Stability study of crystal form A
Assay type: physicochemical
Details: for Crystal form / Purity: 25° C.
Source text: Experimental Example 1 Stability Study

Crystal form (0 day): Crystal form A | Purity (0 day): 99.45% | Crystal form (1 month): Crystal form A | Purity (1 month): 99.41% | Crystal form (3 months): Crystal form A | Purity (3 months): 99.43% | Crystal form after drying (dried under vacuum at 50° C. for 3 hours): not changed | Crystal form after storage (room temperature (25° C.), 3 months): not changed
SMILES: CCOc1ccc(Cc2cc([C@]3(OCC)O[C@H](CO)[C@@H](O)[C@H](O)[C@H]3O)ccc2Cl)cc1 [crystal form A, (2S,3R,4S,5S,6R)-2-(4-chloro-3-(4-ethoxybenzyl)phenyl)-2-ethoxy-6-(methylhydroxy)tetrahydro-2H-pyran-3,4,5-triol]
